Literature values, collected in US6045800A, “Composition for preventing or treating periodontal diseases comprising extract from Achyranthis radix or Ulmus cortex” (LG Chemical Ltd., priority 1997, dated 2000).

Test system: periodontal diseases

SMILES: CN(C)C1C(=O)C(C(N)=O)=C(O)C2(O)C(=O)C3=C(O)c4c(O)cccc4C(C)(O)C3CC12 (stereo not drawn) [tetracycline]
- clinical effect on the symptom of the disease (1000 mg/day for 5 to 7 days): relieved to a clinically normal state
- clinical effect of long term administration (daily dose of 1000 mg for 2 weeks, then 250 mg once daily for 48 weeks): gingivitis has clinically decreased
- side effects (use of the antibiotic): vomiting, a complaint for the ache of gastrointestinal tracts, diarrhea, dental coloring
